Key:
[1] = Intrinsic Dissolution Rate (IDR) test, USP apparatus 2 (paddles); assay type: physicochemical; details: for Ratio: IDR of co-crystal relative to agomelatine; for IDR: 37°C, 100 rpm, 2 hours, calculated from slope of straight line
Source text: The aim of this study was to measure intrinsic dissolution rate (IDR) of some crystalline forms of the present invention in order to compare them with the IDR of the agomelatine. Intrinsic dissolution rate is defined as the dissolution rate of pure substance under the condition of constant surface area.
Figures 20 and 21 show the results of intrinsic dissolution rate performed with co-crystals obtained in examples 4 and 5. The IDR behaviour of agomelatine and the co-crystal of agomelatine - gentisic acid (1:1), agomelatine - citric acid (1:1) from the present invention was tested in USP apparatus 2 (paddles) at 37°C and 100 rpm with 2 hours in a solution of 0,1 N HCl (figure 20) and 2 hours in a buffer solution at pH 6.8 (figure 21). The intrinsic dissolution rate was calculated from the slope of the straight line obtained.

[2] = cited from earlier work
[3] = tested on: α, β adrenergic, histaminergic, cholinergic, dopaminergic and benzodiazepine receptors; details: cited from earlier work
monoamine uptake = details: cited from earlier work

Row | Ratio ([1]; Media Buffer pH 6.8) | Ratio ([1]; Media HCl 0.1M) | IDR ([1]; Media Buffer pH 6.8) [mg/cm^2·s] | IDR ([1]; Media HCl 0.1M) [mg/cm^2·s] | SMILES | solubility in various organic solvents ([2]; 96% ethanol, methanol, methylene chloride, freely soluble) [mg/mL] | solubility in purified water ([2]; purified water, practically insoluble) | affinity [3] | effect on monoamine uptake (monoamine uptake)
1 | 1.70 | 1.28 | 0.0453 | 0.0447 | COc1ccc2cccc(CCNC(C)=O)c2c1 [agomelatine - gentisic acid (1:1) co-crystal] |  |  |  | 
2 |  |  | 0.0267 | 0.0349 | COc1ccc2cccc(CCNC(C)=O)c2c1 [agomelatine, N-[2-(7-methoxynaphthalen-1-yl)ethyl]acetamide] | > 100 | < 0,1 mg/ml | no affinity | no effect
3 | 1.76 | 1.92 | 0.0470 | 0.0670 | COc1ccc2cccc(CCNC(C)=O)c2c1 [agomelatine-citric acid (1:1) co-crystal] |  |  |  | 

From patent EP2551257A1, “Co-crystals of agomelatine with co-crystal-formers” (Laboratorios del. Dr. Esteve, S.A., priority 2011, dated 2013)
